Test results taken from US9572807B2, “Protocols for treatment of major depressive disorder (MDD)” (NEURALSTEM, INC., priority 2014, dated 2017).

Experiments:
Assay type in all cases: in vivo, human
[1] = test system: patients with symptomatic MDD; experiment: Clinician Global Impression-Improvement Scale (CGI-I), Phase 1B study; details: for Cohen's d value, CGI-I (ANCOVA): all test groups (n=18) vs placebo (n=6), Day 7 as baseline
Experimental: (§1) A double-blind, placebo-controlled, multiple-ascending-dose study employing the compound of formula (1) was performed in patients with symptomatic MDD. Twenty-four subjects were recruited, with their diagnosis and illness severity confirmed through an independent, remote SAFER interview (Targum, S. D., et al., CNS Neurosci. Ther. (2008) 14:2-9) from the Massachusetts General Hospital (MGH) Clinical Trials Network and Institute (CTNI) raters. Each patient underwent a screening for eligibility (Day −37 to Day −6 or −3) and eligible patients were admitted into the unit on Day −5 to complete their wash-out and be reconfirmed for eligibility and for baseline assessments. The patients received daily dosing of formula (1) or placebo for 28 days starting on Day 1 and were followed for safety, pharmacokinetics (PK) and pharmacodynamics (PD) until discharge. At the conclusion of in-house dosing (Day 28), patients remained in the unit for up to 3 additional days, at the psychiatrist's discretion. On Day 35 (±3), Day 42 (±3), Day 49 (±3) and Day 70 (±3) outpatient follow-up visits took place. Patients returned to the unit for extensive follow-up on Day 56 (±3) and Day 84 (±3) (End-of-study).
(§2) The subjects were randomized into four groups of 6 patients each to receive 40 mg of formula (1) per dose administered orally in gelatin capsules once daily, twice daily or three times daily to provide 40 or 80 or 120 mg daily of formula (1) or placebo for 28 days. Each cohort included at least 3 female subjects. In this example, qEEG was used to characterize pharmacodynamic effects.
In this example, the results of the study of Example 1 were evaluated by the efficacy assessments that included the Montgomery-Asberg Depression Rating Scale (MADRS), the Clinician Global Impression-Improvement (CGI-I), the Symptoms of Depression Questionnaire (SDQ) and the Cognitive and Physical Functioning Questionnaire (CPFQ). […] These improvements persisted over time during the follow-up for MADRS, SDQ and CPFQ.
Baseline values were adjusted for initial differences and the results for the placebo group (n=6) and the tested groups (n=18) were collapsed. The sizes of the effects were estimated as Cohen's d group mean differences where d=0.20 indicates only a small difference, d=0.50 indicates a medium difference and d=0.80 indicates a large difference. Cohen's d values are described in Cohen, J. (1988) Statistical Power Analysis for the Behavioral Sciences (2nd ed.), Lawrence Erlbaum Associates. D values are used when the scale of a dependent variable is not inherently meaningful, the difference between means are considered in standardized units. That is, effect size is measured in terms of the number of standard deviations by which the means differ. Two commonly used measures are Hedges' g and Cohen's d. Both of these measures consist of the difference between means divided by the standard deviation. They differ only in that Hedges' g uses the version of the standard deviation formula in which division is by N−1, whereas Cohen's d uses the version in which division is by N.
Covariance is a measure of how much two variables change together and how strong the relationship is between them (Lenth, R. V., The American Statistician (2001) 55:187-193). Analysis of covariance (ANCOVA) is a general linear model which blends analysis of variance (ANOVA) and regression. ANCOVA evaluates whether population means of a dependent variable (DV) are equal across levels of a categorical independent variable (IV), while statistically controlling for the effects of other continuous variables that are not of primary interest, known as covariates (CV). Therefore, when performing ANCOVA, the DV means are adjusted to what they would be if all groups were equal on the CV. In the CGI-I assay, Day 7 was used as the baseline value; in the remaining assays, Day 0 was used as baseline.

[2] = test system: patients with symptomatic MDD; experiment: qEEG pharmacodynamic measurement; details: pre vs 6 hours post-dose on Day 14 and Day 28; prominent in left posterior temporal and parietal regions; lower HFα with placebo
Experimental: as §1, with “At the conclusion of in-house dosing (Day 28), patients remained in the unit for up to 3 additional days, at the psychiatrist's discretion. On Day 35 (±3), Day 42 (±3), Day 49 (±3) and Day 70 (±3) outpatient follow-up visits took place. Patients returned to the unit for extensive follow-up on Day 56 (±3) and Day 84 (±3) (End-of-study).” left out
(§3) In addition to safety, pharmacokinetic and the behavioral ratings scales described in Example 2, qEEG measurements were obtained 6 hours post-dose on Days 14 and 28 for 20 minutes at rest. EEGs were recorded using 19-standard International 10/20 System scalp locations plus electromyography (EMG) and eye movement monitoring. Digital EEGs recorded using Cadwell Laboratories instrumentation, were reviewed to identify the presence of physiological and instrumentation prior to analyses. […]

[3] = test system: patients with symptomatic MDD; experiment: Safety and tolerability in Phase 1B study
Experimental: as §1, §2, §3

[4] = test system: patients with symptomatic MDD; experiment: Overall efficacy assessment in Phase 1B study
Experimental: as §1, with “On Day 35 (±3), Day 42 (±3), Day 49 (±3) and Day 70 (±3) outpatient follow-up visits took place. Patients returned to the unit for extensive follow-up on Day 56 (±3) and Day 84 (±3) (End-of-study).” left out
In this example, the results of the study of Example 1 were evaluated by the efficacy assessments that included the Montgomery-Asberg Depression Rating Scale (MADRS), the Clinician Global Impression-Improvement (CGI-I), the Symptoms of Depression Questionnaire (SDQ) and the Cognitive and Physical Functioning Questionnaire (CPFQ). […]

[5] = test system: patients with symptomatic MDD; experiment: Cognitive and Physical Functioning Questionnaire (CPFQ), Phase 1B study; details: FIG. 4

Q: What does the source list for `CC(C)CCNc1ncccc1C(=O)N1CCN(Cc2ccccc2)CC1` [formula (1)]?
A: Cohen's d value, CGI-I (ANCOVA) ([1]; 70 days): 1.13; CGI-I Means ([1]; Day 7, 1x = 40 mg/day oral (n=6)): 3.5; CGI-I Means ([1]; Day 7, 2x = 80 mg/day oral (n=6)): 3.8333; CGI-I Means ([1]; Day 7, 3x = 120 mg/day oral (n=6)): 3.6667; CGI-I Means ([1]; Day 7, all three dose groups pooled (n=18)): 3.6667; CGI-I Means ([1]; Day 14, 1x = 40 mg/day oral (n=6)): 3; CGI-I Means ([1]; Day 14, 2x = 80 mg/day oral (n=6)): 3.3333; CGI-I Means ([1]; Day 14, 3x = 120 mg/day oral (n=6)): 3.1667; CGI-I Means ([1]; Day 14, all three dose groups pooled (n=18)): 3.1667; CGI-I Means ([1]; Day 21, 1x = 40 mg/day oral (n=6)): 2.8333; CGI-I Means ([1]; Day 21, 2x = 80 mg/day oral (n=6)): 3.3333; CGI-I Means ([1]; Day 21, 3x = 120 mg/day oral (n=6)): 3.3333; CGI-I Means ([1]; Day 21, all three dose groups pooled (n=18)): 3.1667; CGI-I value ([1]; Day 28, 40 mg/day, FIG. 1, placebo subset (n=2) 3.5): approximately 2.5; CGI-I value ([1]; Day 28, 80 mg/day (40 mg two times daily), FIG. 1): 3; CGI-I value versus controls ([1]; Day 28, 120 mg/day, FIG. 1): no difference from controls; CGI-I Means ([1]; Day 29, 1x = 40 mg/day oral (n=6)): 2.5; CGI-I Means ([1]; Day 29, 2x = 80 mg/day oral (n=6)): 2.8333; CGI-I Means ([1]; Day 29, 3x = 120 mg/day oral (n=6)): 3.1667; CGI-I Means ([1]; Day 29, all three dose groups pooled (n=18)): 2.8333; Cohen's d value, CGI-I (ANCOVA) ([1]; Day 30): 0.57; CGI-I Means ([1]; Day 35 (follow-up after 28 days dosing), 1x = 40 mg/day oral): 3.8333; CGI-I Means ([1]; Day 35 (follow-up after 28 days dosing), 2x = 80 mg/day oral): 2.8333; CGI-I Means ([1]; Day 35 (follow-up after 28 days dosing), 3x = 120 mg/day oral): 3; CGI-I Means ([1]; Day 35 (follow-up after 28 days dosing), all three dose groups pooled (n=18)): 3.2222; CGI-I Means ([1]; Day 42 (follow-up after 28 days dosing), 1x = 40 mg/day oral): 3.8333; CGI-I Means ([1]; Day 42 (follow-up after 28 days dosing), 2x = 80 mg/day oral): 3; CGI-I Means ([1]; Day 42 (follow-up after 28 days dosing), 3x = 120 mg/day oral): 3; CGI-I Means ([1]; Day 42 (follow-up after 28 days dosing), all three dose groups pooled (n=18)): 3.2778; CGI-I Means ([1]; Day 49 (follow-up after 28 days dosing), 1x = 40 mg/day oral): 3.5; CGI-I Means ([1]; Day 49 (follow-up after 28 days dosing), 2x = 80 mg/day oral): 3.3333; CGI-I Means ([1]; Day 49 (follow-up after 28 days dosing), 3x = 120 mg/day oral): 2.8333; CGI-I Means ([1]; Day 49 (follow-up after 28 days dosing), all three dose groups pooled (n=18)): 3.2222; CGI-I Means ([1]; Day 56 (follow-up after 28 days dosing), 1x = 40 mg/day oral): 3; CGI-I Means ([1]; Day 56 (follow-up after 28 days dosing), 2x = 80 mg/day oral): 3; CGI-I Means ([1]; Day 56 (follow-up after 28 days dosing), 3x = 120 mg/day oral): 2.1667; CGI-I Means ([1]; Day 56 (follow-up after 28 days dosing), all three dose groups pooled (n=18)): 2.7222; CGI-I Means ([1]; Day 70 (follow-up after 28 days dosing), 1x = 40 mg/day oral): 3.6667; CGI-I Means ([1]; Day 70 (follow-up after 28 days dosing), 2x = 80 mg/day oral): 3.5; CGI-I Means ([1]; Day 70 (follow-up after 28 days dosing), 3x = 120 mg/day oral): 3.3333; CGI-I Means ([1]; Day 70 (follow-up after 28 days dosing), all three dose groups pooled (n=18)): 3.5; CGI-I Means ([1]; Day 84 (follow-up after 28 days dosing), 1x = 40 mg/day oral): 3.3333; CGI-I Means ([1]; Day 84 (follow-up after 28 days dosing), 2x = 80 mg/day oral): 2.6667; CGI-I Means ([1]; Day 84 (follow-up after 28 days dosing), 3x = 120 mg/day oral): 2; CGI-I Means ([1]; Day 84 (follow-up after 28 days dosing), all three dose groups pooled): 2.7059; qEEG high frequency α (HFα), amplitude and coherence measures [2]: increased HFα; Serious adverse events ([3]; 40-120 mg/day oral for 28 days): No serious adverse events occurred; Tolerability ([3]; 40-120 mg/day oral for 28 days): well tolerated; Safety EEG recordings by visual inspection ([3]; pre vs post dose): no new findings; Depressive and cognitive symptoms across all measures ([4]; Day 28, two lower doses (40 mg/day and 80 mg/day)): clinically meaningful reduction in depressive and cognitive symptoms across all measures; Effect on condition of patients, further analysis ([4]; highest dose (120 mg/day)): effective in improving the condition of these patients; CPFQ value ([5]; 40 mg/day, control group (n=2) 3.75): 2.8; CPFQ value ([5]; 120 mg/day, controls (n=2) 3.3): 2.6
